Data reported in article PMC4585737, “Lipoproteins/peptides are sepsis-inducing toxins from bacteria that can be neutralized by synthetic anti-endotoxin peptides” (Scientific Reports, 2015).
Entries after “also recorded” stand apart in the source; their conditions may differ. Where no end group is shown, it is not given here. [ ]: non-standard residue; d: D form.

Assays:
human mononuclear cells = test: TNFα production in human mononuclear cells (MNC) stimulated by LP, LTA or PGN, and its inhibition by SALP; assay type: cell-based; settings: for stimulation of MNC (TNFα induction) compared with LPS / TNFα when adding 100 ng/ml of LP / concentration necessary to induce an observable TNFα secretion: human MNC; for stimulation of MNC (TNFα induction) compared with LPS: 4 h, ELISA
Description: The stimulation of MNC was performed as described previously. Briefly, MNC were isolated from heparinized blood of healthy donors by the Hypaque-Ficoll density gradient method. The cell number was equilibrated at 5 × 10^6 cells/ml RPMI 1640 containing 2 mM L-glutamine, 100 U/ml penicillin and 100 μg/ml streptomycin. For stimulation, 200 μl/well MNC were transferred into 96-well culture plates. The stimuli were serially diluted in RPMI 1640 and added to the cultures at 20 μl per well. The cultures were incubated for 4 h at 37 °C under 5% CO2. Cell-free supernatants were collected after centrifugation of the culture plates for 10 min at 400 × g and stored at −20 °C until the determination of the cytokine content. Immunological determination of TNFα in the cell supernatant was performed in a sandwich-ELISA as described earlier (OptEIA; BD, Heidelberg, Germany). TNFα was determined and measured following manufacturer’s instructions and results are the average of two assays.
LP preparations were pre-warmed for 30 min at 37 °C, and added to the cultures at 20 μl per well. In inhibition experiments, different SALP were added directly after LPS/LP/LTA administration.
Since the data of the stimulation of human MNC by the bacterial and synthetic LP was taken over a time period of more than 6 years, the TNFα production lead to considerable variations due to different batches of LP and of Pep19-2.5, and in particular due to variations resulting from blood samples of different donors. Because the main emphasis laid here is the efficiency of the peptide to inhibit the cytokine production, most figures describe the inhibition efficieny of the peptide in %, by presenting the means ± SEM of at least 3 independent experiments. The absolute values of the cytokine production, where of note, is given separately in the text.

human MNCs = settings: cited from earlier work
Excerpt: In this section, we first present in vitro data on the production of pro-inflammatory cytokines by human cells in response to LP or LTA from different origin and its neutralization by SALP. Then, we used a mouse model of acute toxemia to characterize the in vivo expression of those cytokines and to study if SALP can protect animals against lethal LP-induced sepsis.

[1] = active LP adopt non-lamellar aggregates, inactive a lamellar aggregate structure; cited from earlier work
Excerpt: Similar arguments regarding the bioactive conical conformation of ...

Balb/C mice [2] = test: Serum cytokine response in mice after intraperitoneal inoculation; assay type: in vivo, mouse; settings: 40 μg FSL-1 i.p.
Description: (§1) Seven-week-old female SPF-free Balb/C mice of 20 g of body weight, approximately, were purchased from Harlan Spain (Harlan Interfauna Iberica S.A., Barcelona, Spain) and randomly distributed in experimental groups (at least 4 animals per group except for the determination of lethal dose (n = 3)). Sample size was calculated based on previous results with the same animal model. Animals were housed in individually ventilated cages (5 mice per cage) bedded with hardwood bedding. Mice were provided ad libitum access to feed and water and lighting was adjusted to a 14-hour light/10-hour dark cycle. During the experiments, the condition of the animals was monitored daily every 4 hours and animals displaying persistent motor ataxia and hunched posture were euthanized.
To study if FSL-1 had pro-inflammatory cytokine-inducing activity, animals were intraperitoneally inoculated with 40 μg of FSL-1 resuspended in 200 μl of pyrogen-free saline. Blood samples were taken both at 1.5 h or 4 h after FSL-1 challenge to measure TNFα and IL-6 levels. For this purpose, mice were anesthetised, a blood sample was obtained by the retroorbital plexus and serum cytokine levels were measured using Quantikine Immunoassays kits (R&D systems, Minneapolis, USA) following manufacturer’s instructions. Differences between groups were statistically analyzed using the Mann-Whitney U test.
To evaluate the ability of Aspidasept® to neutralize the FSL-1 induced pro-inflammatory cytokines, a group of animals received by the intraperitoneal route first 40 μg of FSL-1 and then 400 μg of the drug resuspended in 100 μl of pyrogen-free saline. This second injection was administered immediately after FSL-1 challenge at a different site of the peritoneum. TNFα and IL-6 levels were measured (see above) at 1.5 h or 4 h after challenge, respectively, coinciding with the peak of cytokine secretion, as determined in preliminary experiments.

Balb/C mice [3] = test: Lethal toxemia in galactosamine-sensitized mice; assay type: in vivo, mouse; settings: for physical activity / survival score of each animal: n = 3, one score per animal
Description: as §1
To determine the lethal dose of FSL-1 in mice, the method of Galanos and collaborators[48] was followed with some modifications. Briefly, animals were intraperitoneally inoculated with increasing amounts of FSL-1 (50 ng, 500 ng, 5 μg and 50 μg) supplemented with 18 mg of D-galactosamine in a final volume of 200 μl of pyrogen-free saline. Galactosamine is known to sensitize mice to pro-inflammatory compounds such as LPS, thus making it possible to use lower amounts of the stimulatory drug[46]. The ability of Aspidasept® to protect mice from FSL-1 dependent lethal toxemia was assessed by co-administering FSL-1 (4 μg/mouse) with D-galactosamine (18 mg/mouse) intraperitoneally.
Results were globally analyzed by means of a Kaplan-Meier survival analysis (SPSS 15.0). When the survival plots were parallel, the data were compared by the log-rank test, whereas the Breslow-Gehan-Wilcoxon test was applied when the plots intersected.

guinea pigs = settings: ref Greis et al. 40; cited from earlier work
Excerpt: (§2) Whereas for Gram-negative species the major inflammation- and sepsis-inducing compounds are endotoxins, the responsible compounds for endotoxin-free organisms (Gram-positive bacteria, fungi, mycoplasma, some Gram-negative bacteria) are poorly described or unknown. From the present data, however, it appears to be that LP are the decisive compounds for inflammation- a ...

rats = settings: ref Hübschle et al. 39; cited from earlier work
Excerpt: as §2

human TLR2 = test: IL-8 production in HEK293 cells transfected with TLR2; assay type: cell-based; settings: HEK293, 18 hours stimulation, relatively high LP concentrations; ELISA
Description: For HEK cell activation, human IL-8 was determined by sandwich enzyme-linked immunosorbent assay using IL-8 cytoset from BIOSOURCE (Life Technologies GmbH, Darmstadt Germany) exactly according to the manufacturer’s protocol. For transient transfection, HEK293 cells were plated at a density of 2.5 × 10^4/well in 96-well plates in Dulbecco’s modified Eagle’s medium (PAA, Pasching, Germany). The following day, cells were transfected using Lipofectamine (Life technologies) according to the manufacturer’s protocol. Expression plasmid containing the FLAG-tagged version of human TLR2 was a kind gift from P. Nelson, Seattle, WA and subcloned into pREP9 (Life Technologies). TLR2 plasmid was used at 100 ng/transfection. After 24 hours of transfection, cells were washed and stimulated for 18 hours with indicated compounds and positive controls. Finally, supernatants were collected and the interleukin-8 content was quantified using a commercial ELISA (Life technologies).
Data shown are the mean ± S.D. of triplicate samples of one experiment and representative of two independent experiments.

TLR4 = test: IL-8 production in HEK cells transfected with a TLR4 expression vector; assay type: cell-based; settings: for IL-8 in TLR4-transfected cells: HEK cells, ELISA
macrophages = settings: LP 19 KDa from M. tuberculosis; cited from earlier work
Excerpt: When adding the polycationic polymyxin B (PMB), a traditional AMP[43] to the shortened 19 KDa LP, a similar lack of interaction was observed.

[4] = molecular target: T1, FSL-1 (fibroblast-stimulating lipopeptide) (Mycoplasma salivarium); test: ITC; lipopeptide 0.05 mM dispersion in the cell (1.5 ml); peptide 1 mM titrated in 3 μl aliquots every 5 min; 37 °C; MCS calorimeter; settings: both partners purified
T1 construct: the first C stands for the lipidated cysteine; Shortened analogue of the 44-kDa lipoprotein LP44 of Mycoplasma salivarium, its N-terminal part; stood in the assays as an aggregate dispersion of the lipopeptide; also called LP FSL-1; source: synthetic lipopeptide, EMC microcollections GmbH (Tübingen)
T1 peptide: [Pam2Cys]GDPKHPKSF

GCRRFKKFKKWRYRGRFWFWCFG [Pep19–12]
inhibition of Pam3CSK4-induced cytokine (TNFα) production (human mononuclear cells; stimulus Pam3CSK4 1000, 100, 10 ng/ml, [LP]:[Pep] up to 1:100 weight%): no or only a small inhibition

GKKYRRFRWKFKGKWFWFG [Pep19–4, synthetic anti-LPS peptide (SALP)]
inhibition efficiency in the biological experiments (human MNCs): moderate

GRRYKKFRWKFKGRWFWFG [Pep19–8, synthetic anti-LPS peptide (SALP)]
inhibition efficiency in the biological experiments (human MNCs): low

Pam2CSK4
biological activity [1]: biologically active

Pam2Cys-GDPKHPKSF [FSL-1, fibroblast-stimulating lipopeptide, synthetic diacyl LP, shortened analogue of the 44-kDa LP LP44 of Mycoplasma salivarium]
stimulation of MNC (TNFα induction) compared with LPS (human mononuclear cells): potency similar to that of LPS; also recorded: similarly active | time of peak serum IL-6 level (Balb/C mice [2]; data not shown): 4 h | time of peak serum TNFα level (Balb/C mice [2]; data not shown): 90 min | serum TNFα response (Balb/C mice [2]; n = 4, 1.5 h): potent | serum IL-6 response (Balb/C mice [2]; n = 4, 4 h): potent | physical activity / survival score of each animal (Balb/C mice [3]; 500 ng FSL-1 i.p. + D-galactosamine 18 mg/mouse, 24 hours): † † † | physical activity / survival score of each animal (Balb/C mice [3]; 500 ng FSL-1 i.p. + D-galactosamine 18 mg/mouse, 48 hours): † † † | time to symptoms of sepsis (reduced motor activity, lethargy, shivering, piloerection) (Balb/C mice [3]; 4 μg FSL-1 i.p. + D-galactosamine 18 mg/mouse): ≤ 120 min | physical activity / survival score of each animal (Balb/C mice [3]; 5 μg FSL-1 i.p. + D-galactosamine 18 mg/mouse, 24 hours): † † † | physical activity / survival score of each animal (Balb/C mice [3]; 5 μg FSL-1 i.p. + D-galactosamine 18 mg/mouse, 48 hours): † † † | physical activity / survival score of each animal (Balb/C mice [3]; 50 μg FSL-1 i.p. + D-galactosamine 18 mg/mouse, 24 hours): † † † | physical activity / survival score of each animal (Balb/C mice [3]; 50 μg FSL-1 i.p. + D-galactosamine 18 mg/mouse, 48 hours): † † † | amount necessary to kill 100% of the animals in 48 h (LD100) (Balb/C mice [3]; galactosamine-sensitized Balb/C mice, i.p., n = 3 per dose): 500 ng/mouse | LD100 relative to the equivalent LD100 of Salmonella minnesota LPS (Balb/C mice [3]; identical experimental conditions, LPS value from ref 24): 10 times higher | in vivo biological activity (guinea pigs): High | in vivo biological activity (rats): High

Pam2Cys-GNNDESNISFKEK [MALP-2, reference compound]
stimulation of MNC (TNFα induction) compared with LPS (human mononuclear cells): similarly active

Pam3Cys-KQNVSSLDEKNSVSV [LP OspA, synthetic triacyl LP, shortened analogue of OspA from Borrelia burgdorferi]
IL-8 secreting activity in TLR-2 transfected cells (human TLR2): considerable IL-8 secreting activity | IL-8 in TLR4-transfected cells (TLR4): nearly no IL-8 signal

Pam3Cys-NNSGKDGNTSANSAD [LP OspC, synthetic triacyl LP, shortened analogue of OspC from Borrelia burgdorferi]
IL-8 secreting activity in TLR-2 transfected cells (human TLR2): considerable IL-8 secreting activity | IL-8 in TLR4-transfected cells (TLR4): nearly no IL-8 signal

Pam3Cys-SKKKK [Pam3CSK4, reference compound]
activation of MNC at 1 ng/ml (human mononuclear cells; 1 ng/ml, data not shown): not | activation of MNC at 10 ng/ml (human mononuclear cells; 10 ng/ml, data not shown): some activation takes place | stimulation of MNC (TNFα induction) compared with LPS (human mononuclear cells): markedly lower level than LPS | IL-8 secreting activity in TLR-2 transfected cells (human TLR2): considerable IL-8 secreting activity | biological activity [1]: biologically active

Pam3Cys-SQEPAAPAAEATPAG [LP H8, synthetic triacyl LP, shortened analogue of LP blp NG from Neisseria gonorrhoeae]
TNFα when adding 100 ng/ml of LP (human mononuclear cells; data not shown): no detectable amounts | concentration necessary to induce an observable TNFα secretion (human mononuclear cells; data not shown): 10 µg/mL | IL-8 secreting activity in TLR-2 transfected cells (human TLR2): considerable IL-8 secreting activity | IL-8 in TLR4-transfected cells (TLR4): nearly no IL-8 signal

Pam3Cys-SSSNNDAAGNGAAQT [LP P6, synthetic triacyl LP, shortened analogue of protein P6 from Haemophilus influenzae]
TNFα when adding 100 ng/ml of LP (human mononuclear cells; data not shown): no detectable amounts | concentration necessary to induce an observable TNFα secretion (human mononuclear cells; data not shown): 10 µg/mL | IL-8 secreting activity in TLR-2 transfected cells (human TLR2): considerable IL-8 secreting activity | IL-8 in TLR4-transfected cells at high concentration (TLR4; 10 μg/ml): significant amounts of IL-8

polymyxin B
inhibition of the stimulation of macrophages by the shortened 19 KDa LP (macrophages): lack of biological inhibition

B1: Pep19-2.5 (Aspidasept^®) (peptide)
peptide: GCKKYRRFRWKFKGKFWFWG-NH2
notes: designed synthetic anti-LPS peptide, 20-mer; purity >95% (HPLC, MALDI-TOF); also called SALP; synthetic anti-LPS peptide; source: synthetic peptide; batches produced by BACHEM (Bubendorf, Switzerland)
binding result [4]: binds
